From patent US20220112479A1, “COMPOUNDS STABILIZING AMYLASES IN LIQUIDS” (BASF SE, priority 2018, published 2022) come the findings set out here.

The subject of one experiment is Amy1=Stainzyme. In words: amylase storage stability in liquid formulation (pNP release from Ethyliden-blocked-pNPG7). The format is biochemical. Details: key: % of activity in reference formulation at time 0. The settings on record: storage at 37° C. How it is done:
(§1) The storage stability of amylase was assessed at 37° C. Base test formulations were manufactured by making base formulations I to V by mixing the components according to Table 1. Amylases used: Amy1=Stainzyme, Amy2=Amplify, Amy3=Stainzyme Plus L (12L) The respective component (a) or comparative compound was added, if applicable, to the respective base formulation in amounts as indicated in Table 1. The amount of amylase as provided in Table 1 refers to active protein. Water was added to accomplish the balance to 100. […] Amylase activity at certain points in time as indicated in Table 2 was measured quantitatively by the release of the chromophore para-nitrophenol (pNP) from the substrate ([…]-blocked-pNPG7, Roche Applied Science 10880078103). The alpha-amylase degrades the substrate into smaller molecules and α-glucosidase (Roche Applied Science 11626329103), which is present in excess compared to the amylase, process these smaller products until pNP is released; the release of pNP, measured via an increase of absorption at 405 nm, is directly proportional to the amylase activity of the sample. Amylase standard: […] 120 L (Sigma 3403). […] The amylolytic activity values provided were calculated referring to the value determined in the reference formulation at the time 0. The nomenclature of formulations is as follows: the Roman number before the full stop characterizes the base formulation, the Arabian number the type of compound (A.# compound according to invention (component (a)); B.# comparative compound).

A further experiment concerns Amy2=Amplify. The experiment is described as above. Details: key: % of activity in reference formulation at time 0. The format is biochemical. The settings on record: storage at 37° C. How it is done: as §1
The mark [1] stands for this setting: base formulation I., 1.5 wt % component (a), 3 d.
[2] abbreviates: base formulation I., 1.5 wt % component (a), 7 d.
The mark [3] stands for this setting: base formulation I., 1.5 wt % component (a), 14 d.
Setting [4] is: base formulation I., 1.5 wt % component (a), 21 d.
Setting [5] is: base formulation I., 1.5 wt % component (a), 28 d.
Setting [6] is: base formulation I., 1.5 wt % component (a), 42 d.
Setting [7] is: base formulation I., 1.5 wt % component (a), T0.
The mark [8] stands for this setting: base formulation IV., 2.0 wt % component (a), 3 d.
The mark [9] stands for this setting: base formulation IV., 2.0 wt % component (a), 7 d.
Where [10] appears, read: base formulation IV., 2.0 wt % component (a), 14 d.
Setting [11] is: base formulation IV., 2.0 wt % component (a), 21 d.
Where [12] appears, read: base formulation IV., 2.0 wt % component (a), 28 d.
Where [13] appears, read: base formulation IV., 2.0 wt % component (a), 42 d.
The mark [14] stands for this setting: base formulation IV., 2.0 wt % component (a), T0.
Where [15] appears, read: base formulation III., 1.5 wt % component (a), 3 d.
[16] abbreviates: base formulation III., 1.5 wt % component (a), 7 d.
Setting [17] is: base formulation III., 1.5 wt % component (a), 14 d.
The mark [18] stands for this setting: base formulation III., 1.5 wt % component (a), 21 d.
Where [19] appears, read: base formulation III., 1.5 wt % component (a), 28 d.
[20] abbreviates: base formulation III., 1.5 wt % component (a), 42 d.
[21] abbreviates: base formulation III., 1.5 wt % component (a), T0.
Setting [22] is: base formulation V., 2.0 wt % component (a), 3 d.
The mark [23] stands for this setting: base formulation V., 2.0 wt % component (a), 7 d.
The mark [24] stands for this setting: base formulation V., 2.0 wt % component (a), 14 d.
Where [25] appears, read: base formulation V., 2.0 wt % component (a), 21 d.
The mark [26] stands for this setting: base formulation V., 2.0 wt % component (a), 28 d.
Where [27] appears, read: base formulation V., 2.0 wt % component (a), 42 d.
[28] abbreviates: base formulation V., 2.0 wt % component (a), T0.

As to `CCOC(=O)CC(O)(CC(=O)OCC)C(=O)OCC` [A.1, Triethylcitrate], the “amylase activity, referring to reference formulation at time 0” value (“amylase activity, referring” for short) is reported as 98 in the experiment on Amy1=Stainzyme (setting [1]); 93 in the experiment with Amy1=Stainzyme (setting [2]); 88 in the experiment on Amy1=Stainzyme (setting [3]); 80 in the experiment with Amy1=Stainzyme (setting [4]); 74 with Amy1=Stainzyme (setting [5]); 61 in the experiment on Amy1=Stainzyme (setting [6]). For the same compound, the “amylase activity, referring” value in the experiment with Amy1=Stainzyme (setting [7]) is on record as 100; with Amy1=Stainzyme (setting [8]), 96; in the experiment with Amy1=Stainzyme (setting [9]), 92; in the experiment on Amy1=Stainzyme (setting [10]), 88; with Amy1=Stainzyme (setting [11]) it was 83; in the experiment on Amy1=Stainzyme (setting [12]), 73. For the same compound, the “amylase activity, referring” value worked out at 61 in the experiment on Amy1=Stainzyme (setting [13]); 98 in the experiment on Amy1=Stainzyme (setting [14]); 98 in the experiment with Amy2=Amplify (setting [15]); 95 in the experiment with Amy2=Amplify (setting [16]); 91 with Amy2=Amplify (setting [17]); 86 in the experiment with Amy2=Amplify (setting [18]). Further, the “amylase activity, referring” value worked out at 78 in the experiment with Amy2=Amplify (setting [19]); 68 with Amy2=Amplify (setting [20]); 100 in the experiment on Amy2=Amplify (setting [21]); 96 in the experiment on Amy2=Amplify (setting [22]); 91 in the experiment on Amy2=Amplify (setting [23]); 87 in the experiment on Amy2=Amplify (setting [24]). Also, the “amylase activity, referring” value in the experiment with Amy2=Amplify (setting [25]) is reported as 80; with Amy2=Amplify (setting [26]), 73; in the experiment on Amy2=Amplify (setting [27]), 62; with Amy2=Amplify (setting [28]), 98.

As to `CCCOC(=O)CC(O)(CC(=O)OCCC)C(=O)OCCC` [A.2, Tripropylcitrate], the “amylase activity, referring” value came to 100 with Amy1=Stainzyme (setting [1]); 96 in the experiment with Amy1=Stainzyme (setting [2]); 90 with Amy1=Stainzyme (setting [3]); 84 in the experiment with Amy1=Stainzyme (setting [4]); 79 with Amy1=Stainzyme (setting [5]); 66 with Amy1=Stainzyme (setting [6]). Also, the “amylase activity, referring” value is on record as 101 in the experiment on Amy1=Stainzyme (setting [7]); 102 in the experiment with Amy2=Amplify (setting [15]); 97 with Amy2=Amplify (setting [16]); 93 with Amy2=Amplify (setting [17]); 87 in the experiment with Amy2=Amplify (setting [18]); 81 in the experiment on Amy2=Amplify (setting [19]). The “amylase activity, referring” value was found to be 71 in the experiment on Amy2=Amplify (setting [20]); 100 in the experiment with Amy2=Amplify (setting [21]); 95 in the experiment with Amy2=Amplify (setting [22]); 90 with Amy2=Amplify (setting [23]); 84 in the experiment on Amy2=Amplify (setting [24]); 76 in the experiment with Amy2=Amplify (setting [25]). The figures for the “amylase activity, referring” value with Amy2=Amplify (setting [26]), in the experiment with Amy2=Amplify (setting [27]) and with Amy2=Amplify (setting [28]) were 66, 54 and 98, respectively.

With `CCOC(=O)CC(CC(=O)OCC)(OC(C)=O)C(=O)OCC` [A.5, Acetyltriethylcitrate], the “amylase activity, referring” value is 91 in the experiment on Amy1=Stainzyme (setting [1]); 80 with Amy1=Stainzyme (setting [2]); 72 with Amy1=Stainzyme (setting [3]); 63 in the experiment with Amy1=Stainzyme (setting [4]); 55 in the experiment on Amy1=Stainzyme (setting [5]); 37 in the experiment on Amy1=Stainzyme (setting [6]). Moreover, the “amylase activity, referring” value with Amy1=Stainzyme (setting [7]) is listed as 97; with Amy2=Amplify (setting [15]) it was 96; with Amy2=Amplify (setting [16]), 92; in the experiment with Amy2=Amplify (setting [17]) it was 87; with Amy2=Amplify (setting [18]), 78; in the experiment with Amy2=Amplify (setting [19]) it was 71. In addition, the “amylase activity, referring” value in the experiment on Amy2=Amplify (setting [20]) turned out to be 55; in the experiment with Amy2=Amplify (setting [21]), 96.

For the compound Diethylcitrate [A.7], the “amylase activity, referring” value in the experiment on Amy1=Stainzyme (setting [1]) amounted to 96; in the experiment on Amy1=Stainzyme (setting [2]), 86; in the experiment with Amy1=Stainzyme (setting [3]), 81; with Amy1=Stainzyme (setting [4]), 74; with Amy1=Stainzyme (setting [5]), 63; in the experiment on Amy1=Stainzyme (setting [6]), 50. Moreover, the “amylase activity, referring” value came out at 99 in the experiment on Amy1=Stainzyme (setting [7]); 94 in the experiment on Amy1=Stainzyme (setting [8]); 88 in the experiment with Amy1=Stainzyme (setting [9]); 82 in the experiment with Amy1=Stainzyme (setting [10]); 74 with Amy1=Stainzyme (setting [11]); 63 in the experiment with Amy1=Stainzyme (setting [12]). The “amylase activity, referring” value stood at 52 in the experiment with Amy1=Stainzyme (setting [13]); 99 in the experiment on Amy1=Stainzyme (setting [14]); 96 in the experiment with Amy2=Amplify (setting [15]); 91 with Amy2=Amplify (setting [16]); 85 in the experiment with Amy2=Amplify (setting [17]); 78 in the experiment with Amy2=Amplify (setting [18]). Also, the “amylase activity, referring” value in the experiment on Amy2=Amplify (setting [19]) is on record as 70; in the experiment on Amy2=Amplify (setting [20]), 60; in the experiment with Amy2=Amplify (setting [21]), 98; in the experiment with Amy2=Amplify (setting [22]), 96; with Amy2=Amplify (setting [23]), 87; with Amy2=Amplify (setting [24]), 74. Besides, the “amylase activity, referring” value in the experiment on Amy2=Amplify (setting [25]) is 63; with Amy2=Amplify (setting [26]), 55; in the experiment on Amy2=Amplify (setting [27]), 47; in the experiment on Amy2=Amplify (setting [28]) it was 98.
